The test system of one test is corky bark. As to the kind of experiment: Vineyard treatment of grapevine plants against corky bark. Format: in vivo. The conditions noted are these: remaining plants (more than 500) of the same vineyard. The text has this:
Finally, some preliminary experiments have shown that the product of the invention is effective not only against downy mildew infections but also against other plant diseases such as, in particular, corky bark, caused by the phytoplasm transmitted by the vector Scaphoideus titanus Ball, a Deltocefalinae plathopper.
In particular the product has been tested on 70 grapevine plants arranged on five rows in a vineyard wherein the remaining plants (more than 500) have been treated with a conventional synthetic plant protection product (Fenitrothion).

The subject of another test is downy mildew. Put plainly: Vineyard treatment of grapevine plants against downy mildew. The conditions noted are these: remaining plants of a vineyard of approximately 1000 grapevine plants; same number and times of applications; beginning of March to end of July. Type of test: in vivo, Plasmopara viticola. The procedure: The product obtained according to example 1 was diluted with water, mixing a part of product with ten parts of water and it was used to treat the grapevine plants.
The product thus diluted was applied by spraying on 70 grapevine plants arranged in 5 rows in a vineyard comprising approximately 1000 grapevine plants. The remaining plants were then treated with a conventional synthetic plant protection product (Metiram).
The treatments were carried out during the period between the beginning of March and the end of July, each time applying a quantity of 100 g of diluted product per plant. The same number of applications as those of the conventional plant protection product were carried out, at the same times.

As for `COP(=S)(OC)Oc1ccc([N+](=O)[O-])c(C)c1` [Fenitrothion], the “plants attacked by corky bark” value with corky bark was “majority”.

With Metiram, in the test on downy mildew, the “plants showing obvious signs of downy mildew infestation” value worked out at 18%.

The values are drawn from US20070071831A1, “Product for the prevention and the treatment of grapevine infections and method of preparation thereof” (Vomm Impianti e Processi S.p.A., priority 2005, published 2007).
